Calls of active or inactive are those of the source.
Assays:
[1] = test system: H9c2; experiment: cells; format: functional, cell-based; settings: Rattus norvegicus, H9c2, Myocardium;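 further: confirmatory concentration-response retest of ultra-high-throughput screening hits for modulation of myocardial damage; cell death induced by hydrogen peroxide oxidative stress; compound pretreatment for 60 min then peroxide exposure for 2 h; potency is for protecting the cells against peroxide damage rather than for killing them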
[2] = biological target: T1, Calpain-2 catalytic subunit (Sus scrofa, UniProt P43367); experiment: m-calpain protease blockers, concentration series – biochemical, fluorogenic peptide substrate, dose response (AID 1420); format: functional
T1 sequence (P43367 whole entry): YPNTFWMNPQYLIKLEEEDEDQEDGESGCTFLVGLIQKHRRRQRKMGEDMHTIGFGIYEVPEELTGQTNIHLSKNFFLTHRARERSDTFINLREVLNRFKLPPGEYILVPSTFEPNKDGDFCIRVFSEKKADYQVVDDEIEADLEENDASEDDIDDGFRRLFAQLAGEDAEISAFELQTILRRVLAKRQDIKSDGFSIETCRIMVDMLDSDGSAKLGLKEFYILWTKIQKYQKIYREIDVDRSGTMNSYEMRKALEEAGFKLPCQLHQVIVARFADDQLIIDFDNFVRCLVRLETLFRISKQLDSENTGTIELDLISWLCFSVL

[3] = Luminescence Cell-Based Dose Retest to Confirm Inhibitors of Cancer Stem Cells. [Related pubchem assays (depositor defined):AID2717, AID2721]; format: functional; settings: Homo sapiens
[4] = Luminescence Cell-Based Dose Confirmation HTS to Identify Inhibitors of Platelet Dense Granule Release. [Related pubchem assays: 1663 (Primary HTS), 1678 (Summary of Project)]; format: functional
[5] = biological target: Luciferin 4-monooxygenase (Photinus pyralis, UniProt P08659); experiment: inhibition of purified Photinus pyralis luciferase – biochemical, luminescence, dose response (AID 1891)
[6] = biological target: T2, Rac GTPase-activating protein 1 (Homo sapiens, UniProt Q9H0H5); experiment: blockers of MgcRacGAP-driven Rac1 GTP hydrolysis – biochemical, ADP Hunter fluorescence, primary and confirmatory, confirmation (AID 624330); format: functional
T2 sequence (Q9H0H5 whole entry): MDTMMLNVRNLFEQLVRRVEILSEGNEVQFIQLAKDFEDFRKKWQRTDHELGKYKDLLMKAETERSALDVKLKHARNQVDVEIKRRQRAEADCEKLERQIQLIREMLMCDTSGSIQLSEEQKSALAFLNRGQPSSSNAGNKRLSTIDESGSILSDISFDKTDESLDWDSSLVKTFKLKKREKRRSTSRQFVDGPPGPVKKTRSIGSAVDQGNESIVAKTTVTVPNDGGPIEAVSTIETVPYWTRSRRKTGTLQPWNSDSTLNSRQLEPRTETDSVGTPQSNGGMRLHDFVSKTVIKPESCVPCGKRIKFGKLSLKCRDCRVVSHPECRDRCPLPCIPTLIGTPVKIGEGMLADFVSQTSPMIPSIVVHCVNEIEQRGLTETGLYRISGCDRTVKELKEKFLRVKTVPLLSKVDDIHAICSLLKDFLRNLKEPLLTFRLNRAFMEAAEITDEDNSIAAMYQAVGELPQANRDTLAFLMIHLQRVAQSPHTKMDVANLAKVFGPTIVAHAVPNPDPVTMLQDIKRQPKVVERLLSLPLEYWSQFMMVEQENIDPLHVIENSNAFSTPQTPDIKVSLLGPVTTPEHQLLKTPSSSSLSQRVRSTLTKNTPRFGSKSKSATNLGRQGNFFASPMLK

[7] = viability of uninfected HEp-2 cells – cell-based, HTS, cytotoxicity control for RSV inhibitor project, dose response (AID 2410); format: functional; settings: human respiratory syncytial virus
[8] = biological target: T3, Corticotropin-releasing factor receptor 2/Corticotropin-releasing factor-binding protein (Homo sapiens, UniProt P24387+Q13324); experiment: activators of CRF receptor 2 with binding protein – uHTS hits, confirmation (AID 602473); format: functional; settings: read-out: EC50_Mean
T3 sequence (Q13324 whole entry): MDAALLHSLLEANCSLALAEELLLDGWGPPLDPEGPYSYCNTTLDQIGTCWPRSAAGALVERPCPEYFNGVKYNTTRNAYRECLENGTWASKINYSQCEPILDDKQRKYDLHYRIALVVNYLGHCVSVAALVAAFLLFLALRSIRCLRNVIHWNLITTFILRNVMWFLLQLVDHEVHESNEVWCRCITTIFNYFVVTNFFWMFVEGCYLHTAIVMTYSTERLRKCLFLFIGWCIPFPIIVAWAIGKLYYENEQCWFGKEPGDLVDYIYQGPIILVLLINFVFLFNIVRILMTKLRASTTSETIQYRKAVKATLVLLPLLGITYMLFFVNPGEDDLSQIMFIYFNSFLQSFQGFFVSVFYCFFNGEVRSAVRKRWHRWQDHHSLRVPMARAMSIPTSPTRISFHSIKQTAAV
T3 sequence (P24387 whole entry): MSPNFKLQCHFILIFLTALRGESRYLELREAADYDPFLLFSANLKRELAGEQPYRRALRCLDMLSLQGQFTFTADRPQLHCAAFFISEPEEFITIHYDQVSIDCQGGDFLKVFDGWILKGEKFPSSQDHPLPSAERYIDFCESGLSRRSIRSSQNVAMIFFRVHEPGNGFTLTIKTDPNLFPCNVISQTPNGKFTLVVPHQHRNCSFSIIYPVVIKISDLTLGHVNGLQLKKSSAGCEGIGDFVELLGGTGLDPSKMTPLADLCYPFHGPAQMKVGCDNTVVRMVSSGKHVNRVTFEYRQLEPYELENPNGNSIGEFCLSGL

[9] = biological target: T3, Corticotropin-releasing factor receptor 2/Corticotropin-releasing factor-binding protein; experiment: Dose Response confirmation of uHTS hits for small molecule antagonists of the CRF-binding protein and CRF-R2 receptor complex.; format: functional; settings: read-out: IC50_Mean
[10] = test system: H4; experiment: Luminescence Cell-Based Dose Response HTS to Identify Activators of 5'UTR Stem-Loop Driven Prion Protein mRNA Translation in H4 Neuroglioblastoma Cells. [Related pubchem assays: 1829 (Project Summary), 1814 (Primary HTS)]; format: functional; settings: Homo sapiens
[11] = Luminescence Cell-Based Dose Response HTS to Identify Activators of Luciferase Translation or Activity in H4 […] Cells. [Related pubchem assays: 1829 (Project Summary), 1814 (Primary HTS)]; format: functional
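Wherever AC50 is given: cells exposed to compound for roughly 70 hours or longer before luminescence read.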

Chain of Luciferin 4-monooxygenase (P08659 whole entry): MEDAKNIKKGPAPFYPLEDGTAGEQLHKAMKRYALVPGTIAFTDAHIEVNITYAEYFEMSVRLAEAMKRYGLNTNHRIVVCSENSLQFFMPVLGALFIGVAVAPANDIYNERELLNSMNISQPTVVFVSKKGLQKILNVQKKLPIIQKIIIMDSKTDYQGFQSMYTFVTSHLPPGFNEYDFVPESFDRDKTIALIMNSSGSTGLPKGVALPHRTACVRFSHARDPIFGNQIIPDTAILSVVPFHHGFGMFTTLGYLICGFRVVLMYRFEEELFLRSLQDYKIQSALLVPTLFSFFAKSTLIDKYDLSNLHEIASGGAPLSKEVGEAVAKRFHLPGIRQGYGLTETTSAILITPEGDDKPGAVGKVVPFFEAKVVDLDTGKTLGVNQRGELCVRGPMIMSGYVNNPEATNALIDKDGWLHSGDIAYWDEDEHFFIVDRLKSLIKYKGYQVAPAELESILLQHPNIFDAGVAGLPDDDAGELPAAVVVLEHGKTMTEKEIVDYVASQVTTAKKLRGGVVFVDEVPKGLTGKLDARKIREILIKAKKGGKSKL

C/C(=N\O)[C@H]1CC[C@H]2[C@@H]3CC[C@H]4C/C(=N\O)CC[C@]4(C)[C@H]3C(C)(O)C[C@]12C (some centres not stated)
IC50 [1]: > 79 µM (inactive)

COc1cccc(C2CC(c3ccccc3OC)n3nc(N)nc3N2)c1 (configuration not stated)
IC50 [2]: > 50 µM (not active)

CCN1CCN(c2nc(O)c3c(n2)CCCC3)CC1
IC50 [1]: > 79 µM (inactive)

CC(=O)Nc1ccccc1C(=O)C(=O)Nc1cccc(C(=O)NCC2CCCO2)c1 (configuration not stated)
IC50 [2]: 7.39 µM (not active)

CC(C)CCNc1nc(-c2ccco2)c2c(c1C#N)CCCC2
AC50 [3]: 10.4 µM (active)

O=c1oc(Nc2cccc(Cl)c2)nc2ccccc12
EC50 [4]: 16 µM (active)
EC50 [5]: 37.7 µM (active)

Oc1ccc(/C=C/c2ccc3ccccc3n2)cc1
EC50 [4]: 0.235 µM (active)
IC50 [6]: 28 µM (active)
CC50 [7]: 19.7 µM (active)
EC50 [5]: 0.161 µM (active)

CC(Sc1nnc(-c2ccc(O)cc2)o1)C(=O)Nc1cccc2ccccc12 (configuration not stated)
IC50 [2]: < 0.4 µM (not active)

COc1ccc(OC)c(Nc2nc(NCc3ccco3)c3ccccc3n2)c1
EC50 [4]: 49 µM (active)
EC50 [5]: 18.7 µM (active)

CC(CCc1ccco1)NC(=O)CCc1nnc2ccc(NCc3ccccc3)nn12 (configuration not stated)
EC50 [8]: > 53 µM (inactive)
EC50 [4]: > 112 µM (not active)
IC50 [9]: > 47.1 µM (inactive)
EC50 [5]: > 112 µM (not active)

COc1ccccc1NC(=O)/C(=C/c1cccs1)NC(=O)c1ccco1
IC50 [2]: 26 µM (not active)

O=c1c2ccccc2nc(-c2ccc(Cl)c(Cl)c2)n1O
IC50 [1]: > 79 µM (inactive)

CCCCC(=O)Nc1nc(C)c(-c2csc(Nc3cc(Cl)ccc3OC)n2)s1
CC50 [7]: 26.5 µM (active)

O=C(CSc1ccc(-c2ccccc2)nn1)N1CCCCC1
EC50 [10]: 65.2 µM (active)
EC50 [11]: 25.4 µM (active)

CC(C)N(Cc1nc(-c2ccccc2)no1)C(=O)CCCN1C(=O)c2ccccc2C1=O
IC50 [2]: > 50 µM (not active)

COc1ccc(C(=O)Nc2ccccc2C(=O)N/N=C/c2ccncc2)cc1OC
EC50 [4]: 0.564 µM (active)
EC50 [5]: 0.609 µM (active)

Cc1ccc(OCCn2cc(/C=C(\C#N)C(=O)NCC3CCCO3)c3ccccc32)cc1 (configuration not stated)
CC50 [7]: 38.7 µM (active)

[2H]c1c([2H])c([2H])c(-c2nc(N3CCCCCC3)sc2C(=O)c2ccccc2)c([2H])c1[2H]
CC50 [7]: 41.6 µM (active)

O=C(CN1C(=O)C2CC=CCC2C1=O)Nc1nc(-c2ccc(F)c(F)c2)cs1 (configuration not stated)
IC50 [1]: > 79 µM (inactive)

Cn1c(=O)n(C)c2cc([N+](=O)[O-])c(N3CCN(CCO)CC3)cc21
IC50 [2]: 7.45 µM (not active)

O=C(O)c1ccc(-c2noc(-c3ccccc3F)n2)cc1
EC50 [4]: 1.6 µM (active)
EC50 [5]: 1.45 µM (active)

CCOc1ccccc1Cn1c(=O)sc2ccccc21
IC50 [2]: 13.1 µM (not active)

CSc1ccc(/C=N/NC(=O)c2cc(O)cc(O)c2)cc1
EC50 [4]: 10 µM (active)
EC50 [5]: 1.22 µM (active)

N#CCCN(C(=O)COC(=O)CCc1nc(O)c2ccccc2n1)c1ccc(F)cc1
IC50 [1]: > 79 µM (inactive)

Cc1ccc(C2CCN(C(S)=Nc3cccc(C)c3)C2)cc1 (configuration not stated)
IC50 [2]: 9.72 µM (not active)
